Results published in BindingDB's records for patent US20230365554 (The Broad Institute, 2023).

What was measured:
[1] = target: T1, Casein kinase I isoform alpha (Homo sapiens, UniProt P48729); assay: CSNK1A1 Assay 2
Protocol: CSNK1A1-inhibitory activity of compounds of the present invention in presence of 1 μM adenosine-tri-phosphate (ATP) was quantified employing the CSNK1A1 assay as described in the following paragraphs. In essence, the enzyme activity is measured by quantification of the adenosine-di-phosphate (ADP), which is generated as a co-product of the enzyme reaction, via the ADP-Glo Kinase Assay kit from the company Promega. This detection system works as follows: In a first step the ATP not consumed in the kinase reaction is quantitatively converted to cAMP employing an adenylate cyclase ( ADP-Glo-reagent ), then the adenylate cyclase is stopped and the ADP generated in the kinase reaction converted to ATP which generates in a luciferase-based reaction a glow-luminescence signal ( Kinase Detection Reagent ). Recombinant fusion protein of N-terminal Glutathion-S-Transferase (GST) and full-length human CSNK1A1, expressed by baculovirus infected insect cells and purified via Glutathion affinity chromatography, was purchased from Life Technologies (product no. PV4174) and used as enzyme. As substrate for the kinase reaction the biotinylated peptide biotin-Ahx-KRRRAL-pS-VASLPGL (C-terminus in amide form) was used which can be purchased e.g. from the company Biosyntan (Berlin-Buch, Germany).For the assay 50 nl of a 100 fold concentrated solution of the test compound in DMSO was pipetted into a white 1536-well microtiter plate (Greiner Bio-One, Frickenhausen, Germany), 2 μL of a solution of CSNK1A1 in aqueous assay buffer [50 mM HEPES pH 7.5, 10% (v/v) glycerol, 10 mM MgCl2, 50 mM NaCl, 1 mM dithiothreitol, 0.01% (w/v) bovine serum albumin, 0.01% (v/v) Triton X-100] were added and the mixture was incubated for 15 min at 22 C. to allow pre-binding of the test compounds to the enzyme before the start of the kinase reaction. […]

[2] = target: Casein kinase I isoform delta (Homo sapiens, UniProt P48730); assay: CSNK1D Assay
Protocol: CSNK1D-inhibitory activity of compounds of the present invention in presence of 1 μM adenosine-tri-phosphate (ATP) was quantified employing the CSNK1D assay as described in the following paragraphs. In essence, the enzyme activity is measured by quantification of the adenosine-di-phosphate (ADP), which is generated as a co-product of the enzyme reaction, via the ADP-Glo Kinase Assay kit from the company Promega. This detection system works as follows: In a first step the ATP not consumed in the kinase reaction is quantitatively converted to cAMP employing an adenylate cyclase ( ADP-Glo-reagent ), then the adenylate cyclase is stopped and the ADP generated in the kinase reaction converted to ATP which generates in a luciferase-based reaction a glow-luminescence signal ( Kinase Detection Reagent ).Recombinant fusion protein of N-terminal Glutathion-S-Transferase (GST) and full-length human CSNK1D, expressed by baculovirus infected insect cells and purified via Glutathion affinity chromatography, was purchased from Life Technologies (product no. PV3665) and used as enzyme. […]

[3] = target: T1, Casein kinase I isoform alpha; assay: CSNK1A1 Assay 1
Protocol: CSNK1A1-inhibitory activity of compounds of the present invention in presence of 1 μM adenosine-tri-phosphate (ATP) was quantified employing the CSNK1A1 assay as described in the following paragraphs. In essence, the enzyme activity is measured by quantification of the adenosine-di-phosphate (ADP), which is generated as a co-product of the enzyme reaction, via the ADP-Glo Kinase Assay kit from the company Promega. This detection system works as follows: In a first step the ATP not consumed in the kinase reaction is quantitatively converted to cAMP employing an adenylate cyclase ( ADP-Glo-reagent ), then the adenylate cyclase is stopped and the ADP generated in the kinase reaction converted to ATP which generates in a luciferase-based reaction a glow-luminescence signal ( Kinase Detection Reagent ).Recombinant fusion protein of N-terminal Glutathion-S-Transferase (GST) and full-length human CSNK1A1, expressed by baculovirus infected insect cells and purified via Glutathion affinity chromatography, was purchased from Life Technologies (product no. PV4174) and used as enzyme. […] Subsequently 2.5 μL of the kinase detection reagent (1.2 fold more concentrated than recommended by the producer) were added, the resulting mixture was incubated at 22° C. for 1 h and then the luminescence measured with a suitable measurement instrument (e.g. Viewlux from Perkin-Elmer). […]

T1 sequence (P48729 whole entry, canonical isoform): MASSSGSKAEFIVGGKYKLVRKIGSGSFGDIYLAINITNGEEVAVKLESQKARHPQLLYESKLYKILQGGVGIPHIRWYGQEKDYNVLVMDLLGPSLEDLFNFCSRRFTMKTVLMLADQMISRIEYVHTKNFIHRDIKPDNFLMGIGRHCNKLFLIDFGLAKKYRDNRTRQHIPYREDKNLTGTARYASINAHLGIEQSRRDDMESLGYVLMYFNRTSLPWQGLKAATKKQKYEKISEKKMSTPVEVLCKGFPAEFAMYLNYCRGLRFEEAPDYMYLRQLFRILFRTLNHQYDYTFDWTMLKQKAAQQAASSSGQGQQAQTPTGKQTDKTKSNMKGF
Casein kinase I isoform delta, sequence (P48730 whole entry, canonical isoform): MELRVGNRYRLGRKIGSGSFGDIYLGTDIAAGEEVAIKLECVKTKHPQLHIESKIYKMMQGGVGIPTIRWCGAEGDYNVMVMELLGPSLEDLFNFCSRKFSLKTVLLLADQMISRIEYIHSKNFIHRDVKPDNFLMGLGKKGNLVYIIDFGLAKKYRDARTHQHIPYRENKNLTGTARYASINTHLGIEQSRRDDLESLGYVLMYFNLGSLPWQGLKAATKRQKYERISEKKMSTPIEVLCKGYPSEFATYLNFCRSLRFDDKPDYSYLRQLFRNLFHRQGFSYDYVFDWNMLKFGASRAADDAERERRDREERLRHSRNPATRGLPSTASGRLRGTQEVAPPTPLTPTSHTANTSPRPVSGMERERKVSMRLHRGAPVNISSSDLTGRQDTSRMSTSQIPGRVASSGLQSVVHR

| Compound | IC50 [1] [nM] | IC50 [2] [nM] | IC50 [3] [nM] |
| --- | --- | --- | --- |
| CC1CN(C)C(=O)c2c1[nH]c(-c1ccnc(NC(=O)C(CC(F)F)c3ccc(F)cc3)c1)c2Nc1ccccc1 (mixture of isomers) [US20230365554, Example 10] | 5.4 | 9.1 |  |
| Cc1cn(C)c(=O)c2c(Nc3ccccc3)c(-c3ccnc(NC(=O)Cc4ccc(F)cc4)c3)[nH]c12 [US20230365554, Example 38] | 4.2 | 6.6 |  |
| CC(=O)Nc1cc(-c2[nH]c3c(c2Nc2ccccc2)C(=O)N(C)CC3)ccn1 | 11 |  |  |
| CN1CCc2[nH]c(-c3ccnc(NC(=O)[C@@H]4C[C@H]4F)c3)c(Nc3ccccc3)c2C1=O (relative stereo) [WO 2016/120196, Example 25] |  |  | 63 |
